Structures can show the parent of a compound that is named as a salt.
Experiments:
Type in all cases: biochemical
[1] = biological target: T1, human JAK3 (a.a. 781-1124) (Homo sapiens, UniProt P52333); experiment: In vitro JAK kinase assay (HTRF, phosphorylation of a biotinylated peptide), JAK3; details: Table B1
T1 construct: JAK3 (a.a. 781-1124); His tag (N); made in house; host or cells: insect cells (baculovirus)
Procedure, shortened: (§1)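 Kinase activity was measured as phosphorylation of a biotinylated peptide, with ATP at 90 μM for JAK1, 30 μM for JAK2 and 3 μM for JAK3. Reactions ran 1 hr at room temperature, were stopped with EDTA plus SA-APC and Eu-Py20, and were read by HTRF after 40 minutes of antibody binding.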

[2] = biological target: T2, human JAK2 (a.a. 828-1132) (Homo sapiens, UniProt O60674); experiment: In vitro JAK kinase assay (HTRF, phosphorylation of a biotinylated peptide), JAK2; details: Table B1
T2 construct: JAK2 (a.a. 828-1132); His tag (N); made in house; host or cells: insect cells (baculovirus)
Procedure, shortened: as §1

TYK2 = TYK2 (Homo sapiens, UniProt P29597); experiment: TYK2 kinase inhibition (Table A1); details: Table B1
[3] = biological target: T3, Recombinant Human Anaplastic Lymphoma Kinase (Homo sapiens, UniProt Q9UM73); experiment: ALK HTRF kinase assay; details: compound at a concentration of 500 nM or 1 mM (not specified); cells shown as percentage
T3 construct: purchased Invitrogen, Carlsbad, Calif
Procedure, shortened: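 TR-FRET read-out (Eu anti-pTyr antibody + streptavidin-APC) of biotin-peptide phosphorylation by recombinant human enzyme; IC50 by sigmoidal fit with top/bottom baselines and Hill slope.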

[4] = biological target: T4, human JAK1 (a.a. 837-1142) (Homo sapiens, UniProt P23458); experiment: In vitro JAK kinase assay (HTRF, phosphorylation of a biotinylated peptide), JAK1; details: Table B1; read-out: JAK1 IC50
T4 construct: human JAK1 (a.a. 837-1142); His tag (N); made in house; host or cells: insect cells (baculovirus)
Procedure, shortened: as §1

T4 sequence (P23458 849-1154): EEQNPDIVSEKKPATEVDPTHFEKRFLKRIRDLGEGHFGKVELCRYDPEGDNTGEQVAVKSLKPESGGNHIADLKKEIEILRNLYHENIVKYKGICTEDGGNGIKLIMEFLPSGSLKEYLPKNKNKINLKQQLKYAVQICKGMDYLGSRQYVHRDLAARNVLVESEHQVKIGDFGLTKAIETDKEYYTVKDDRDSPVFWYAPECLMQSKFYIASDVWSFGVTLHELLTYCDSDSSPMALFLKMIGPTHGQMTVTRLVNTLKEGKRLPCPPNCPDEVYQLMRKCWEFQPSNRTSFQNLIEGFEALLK
T3 sequence (Q9UM73 19-1620): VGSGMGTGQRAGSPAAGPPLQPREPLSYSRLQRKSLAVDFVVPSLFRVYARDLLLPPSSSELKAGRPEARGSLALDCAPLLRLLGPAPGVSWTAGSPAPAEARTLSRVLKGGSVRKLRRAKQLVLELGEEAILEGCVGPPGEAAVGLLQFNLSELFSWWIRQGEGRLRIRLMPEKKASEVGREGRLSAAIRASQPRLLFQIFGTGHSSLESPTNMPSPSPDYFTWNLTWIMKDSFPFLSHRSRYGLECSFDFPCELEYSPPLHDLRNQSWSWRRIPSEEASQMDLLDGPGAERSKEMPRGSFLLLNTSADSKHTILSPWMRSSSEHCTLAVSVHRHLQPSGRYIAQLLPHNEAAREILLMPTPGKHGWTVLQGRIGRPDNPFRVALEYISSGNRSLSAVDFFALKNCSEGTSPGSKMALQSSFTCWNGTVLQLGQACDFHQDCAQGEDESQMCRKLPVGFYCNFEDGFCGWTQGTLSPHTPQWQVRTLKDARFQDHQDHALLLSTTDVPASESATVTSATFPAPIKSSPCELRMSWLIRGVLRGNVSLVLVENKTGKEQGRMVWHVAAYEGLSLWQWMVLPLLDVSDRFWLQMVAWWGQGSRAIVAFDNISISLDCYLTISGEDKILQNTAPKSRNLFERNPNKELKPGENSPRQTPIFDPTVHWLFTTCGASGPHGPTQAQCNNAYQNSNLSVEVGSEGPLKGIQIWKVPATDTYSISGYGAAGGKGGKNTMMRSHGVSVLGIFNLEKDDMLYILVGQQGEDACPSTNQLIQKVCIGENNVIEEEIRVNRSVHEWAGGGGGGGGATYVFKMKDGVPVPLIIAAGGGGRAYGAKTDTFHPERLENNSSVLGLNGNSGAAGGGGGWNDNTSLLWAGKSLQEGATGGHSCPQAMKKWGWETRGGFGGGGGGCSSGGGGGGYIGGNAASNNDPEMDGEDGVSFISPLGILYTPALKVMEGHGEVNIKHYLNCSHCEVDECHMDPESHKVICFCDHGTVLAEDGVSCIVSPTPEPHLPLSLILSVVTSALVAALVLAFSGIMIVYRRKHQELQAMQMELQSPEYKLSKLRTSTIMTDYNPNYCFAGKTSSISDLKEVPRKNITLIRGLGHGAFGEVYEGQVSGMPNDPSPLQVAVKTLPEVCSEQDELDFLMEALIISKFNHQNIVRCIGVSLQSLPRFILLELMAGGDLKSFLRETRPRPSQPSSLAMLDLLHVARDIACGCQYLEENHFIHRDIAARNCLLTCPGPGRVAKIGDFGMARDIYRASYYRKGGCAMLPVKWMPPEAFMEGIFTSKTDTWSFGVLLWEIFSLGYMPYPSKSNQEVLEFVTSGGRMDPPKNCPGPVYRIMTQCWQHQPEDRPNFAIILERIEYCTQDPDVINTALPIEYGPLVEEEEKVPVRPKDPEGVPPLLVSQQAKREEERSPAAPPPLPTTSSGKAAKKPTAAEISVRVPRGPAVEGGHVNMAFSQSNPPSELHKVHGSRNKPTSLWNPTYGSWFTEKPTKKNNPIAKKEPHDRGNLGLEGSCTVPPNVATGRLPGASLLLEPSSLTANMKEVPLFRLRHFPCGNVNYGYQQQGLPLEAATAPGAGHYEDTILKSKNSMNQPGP
T1 sequence (P52333 781-1124): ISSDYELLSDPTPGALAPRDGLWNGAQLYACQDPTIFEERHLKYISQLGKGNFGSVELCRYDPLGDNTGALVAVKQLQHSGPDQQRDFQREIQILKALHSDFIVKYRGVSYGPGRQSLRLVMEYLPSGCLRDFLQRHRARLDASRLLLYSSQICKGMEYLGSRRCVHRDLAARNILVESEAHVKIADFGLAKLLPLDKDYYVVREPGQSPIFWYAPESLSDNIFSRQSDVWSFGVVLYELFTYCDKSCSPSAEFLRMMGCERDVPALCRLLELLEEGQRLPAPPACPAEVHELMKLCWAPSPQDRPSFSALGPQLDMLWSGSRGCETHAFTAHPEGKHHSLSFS
Chain of TYK2 (P29597 whole entry): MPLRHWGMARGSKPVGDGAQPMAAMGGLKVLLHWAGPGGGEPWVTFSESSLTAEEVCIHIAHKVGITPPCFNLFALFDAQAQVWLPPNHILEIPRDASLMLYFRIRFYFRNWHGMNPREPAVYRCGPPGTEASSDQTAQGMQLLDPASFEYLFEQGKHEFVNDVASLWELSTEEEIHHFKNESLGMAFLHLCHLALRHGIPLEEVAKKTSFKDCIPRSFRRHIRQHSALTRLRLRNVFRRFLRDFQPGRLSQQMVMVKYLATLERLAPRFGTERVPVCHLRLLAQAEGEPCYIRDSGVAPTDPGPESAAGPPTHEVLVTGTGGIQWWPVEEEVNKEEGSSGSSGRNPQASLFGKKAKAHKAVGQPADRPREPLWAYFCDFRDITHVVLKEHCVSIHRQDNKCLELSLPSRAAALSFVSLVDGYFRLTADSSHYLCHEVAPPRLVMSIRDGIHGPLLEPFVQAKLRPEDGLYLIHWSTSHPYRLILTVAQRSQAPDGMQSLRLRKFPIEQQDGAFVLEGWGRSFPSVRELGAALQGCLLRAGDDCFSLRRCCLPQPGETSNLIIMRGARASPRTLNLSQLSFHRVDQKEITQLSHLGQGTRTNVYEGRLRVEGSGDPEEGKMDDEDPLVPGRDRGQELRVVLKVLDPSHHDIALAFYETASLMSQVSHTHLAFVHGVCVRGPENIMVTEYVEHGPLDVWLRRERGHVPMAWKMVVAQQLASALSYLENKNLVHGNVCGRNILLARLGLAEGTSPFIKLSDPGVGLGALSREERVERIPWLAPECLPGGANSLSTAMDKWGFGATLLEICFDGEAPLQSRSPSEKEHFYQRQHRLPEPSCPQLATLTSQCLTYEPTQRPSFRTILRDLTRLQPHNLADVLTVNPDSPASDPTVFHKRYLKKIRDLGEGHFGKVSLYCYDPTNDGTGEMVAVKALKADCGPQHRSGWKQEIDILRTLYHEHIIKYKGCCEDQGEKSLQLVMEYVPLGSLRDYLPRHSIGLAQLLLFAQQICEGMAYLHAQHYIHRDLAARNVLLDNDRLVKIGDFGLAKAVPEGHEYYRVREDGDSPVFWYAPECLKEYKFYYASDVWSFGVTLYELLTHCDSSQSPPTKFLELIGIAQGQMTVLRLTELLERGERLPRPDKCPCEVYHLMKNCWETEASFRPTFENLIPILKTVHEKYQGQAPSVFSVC
T2 sequence (O60674 828-1132): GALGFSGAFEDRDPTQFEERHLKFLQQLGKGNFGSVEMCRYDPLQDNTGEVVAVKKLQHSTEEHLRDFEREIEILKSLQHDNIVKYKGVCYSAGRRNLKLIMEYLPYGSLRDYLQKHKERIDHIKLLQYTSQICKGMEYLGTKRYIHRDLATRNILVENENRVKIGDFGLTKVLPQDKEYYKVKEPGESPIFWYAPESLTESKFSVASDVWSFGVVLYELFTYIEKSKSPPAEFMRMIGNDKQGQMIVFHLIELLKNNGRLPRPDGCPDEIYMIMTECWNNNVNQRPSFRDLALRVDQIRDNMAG

IC50 [1] [nM]	IC50 [2] [nM]	IC50 (TYK2) [nM]	ALK % of inhibition at a concentration of 500 nM or 1 mM [3] [%]	IC50 [4] [nM]	Compound
10	1.5	3.5	22	1.1	O=C(NCCO)Nc1ccc2cc1CCc1cccc(c1)Nc1ncc(Cl)c(n1)N2 [Example B241, N-[6-Chloro-2,4,8,22-tetraazatetracyclo[14.3.1.1(3,7).1(9,13)]docosa-1(20),3(22),4,6,9(21),10,12,16,18-nonaen-12-yl]-N′-(2-hydroxyethyl)urea trifluoroacetate]
12	2	6.9	16	2.8	CC(CO)NC(=O)Nc1ccc2cc1CCc1cccc(c1)Nc1ncc(Cl)c(n1)N2 (stereo not drawn) [Example B242, N-[6-Chloro-2,4,8,22-tetraazatetracyclo[14.3.1.1(3,7).1(9,13)]docosa-1(20),3(22),4,6,9(21),10,12,16,18-nonaen-12-yl]-N′-(2-hydroxy-1-methylethyl)urea trifluoroacetate]
16	1.5	3.1	14	0.92	COCCNC(=O)Nc1ccc2cc1CCc1cccc(c1)Nc1ncc(Cl)c(n1)N2 [Example B243, N-[6-Chloro-2,4,8,22-tetraazatetracyclo[14.3.1.1(3,7).1(9,13)]docosa-1(20),3(22),4,6,9(21),10,12,16,18-nonaen-12-yl]-N′-(2-methoxyethyl)urea trifluoroacetate]
2.6	19	1.6	63	9.2	O=C(Nc1nc[nH]n1)Nc1ccc2cc1CCc1cccc(c1)Nc1ncc(Cl)c(n1)N2 [Example B244, N-[6-Chloro-2,4,8,22-tetraazatetracyclo[14.3.1.1(3,7).1(9,13)]docosa-1(20),3(22),4,6,9(21),10,12,16,18-nonaen-12-yl]-N′-1H-1,2,4-triazol-3-ylurea trifluoroacetate]
20	78	8.5	41	17	O=C(Nc1nccs1)Nc1ccc2cc1CCc1cccc(c1)Nc1ncc(Cl)c(n1)N2 [Example B245, N-[6-Chloro-2,4,8,22-tetraazatetracyclo[14.3.1.1(3,7).1(9,13)]docosa-1(20),3(22),4,6,9(21),10,12,16,18-nonaen-12-yl]-N′-1,3-thiazol-2-ylurea trifluoroacetate]
21	25	3.4	23	12	O=C(NCc1ccncc1)Nc1ccc2cc1CCc1cccc(c1)Nc1ncc(Cl)c(n1)N2 [Example B246, N-[6-Chloro-2,4,8,22-tetraazatetracyclo[14.3.1.1(3,7).1(9,13)]docosa-1(20),3(22),4,6,9(21),10,12,16,18-nonaen-12-yl]-N′-(pyridin-4-ylmethyl)ureabis(trifluoroacetate)]
73	4	20	7.5	6.5	COCC(C)NC(=O)Nc1ccc2cc1CCc1cccc(c1)Nc1ncc(Cl)c(n1)N2 (stereo not drawn) [Example B247, N-[6-Chloro-2,4,8,22-tetraazatetracyclo[14.3.1.1(3,7).1(9,13)]docosa-1(20),3(22),4,6,9(21),10,12,16,18-nonaen-12-yl]-N′-(2-methoxy-1-methylethyl)ureatrifluoroacetate]
46	171	25	32	77	Cc1cnc(NC(=O)Nc2ccc3cc2CCc2cccc(c2)Nc2ncc(Cl)c(n2)N3)s1 [Example B248, N-[6-Chloro-2,4,8,22-tetraazatetracyclo[14.3.1.1(3,7).1(9,13)]docosa-1(20),3(22),4,6,9(21),10,12,16,18-nonaen-12-yl]-N′-(5-methyl-1,3-thiazol-2-yl)urea trifluoroacetate]
103	8.6	30	35	6	Cc1csc(NC(=O)Nc2ccc3cc2CCc2cccc(c2)Nc2ncc(Cl)c(n2)N3)n1 [Example B249, N-[6-Chloro-2,4,8,22-tetraazatetracyclo[14.3.1.1(3,7).1(9,13)]docosa-1(20),3(22),4,6,9(21),10,12,16,18-nonaen-12-yl]-N′-(4-methyl-1,3-thiazol-2-yl)ureatrifluoroacetate]
6.3	28	5.5	66	28	O=C(Nc1nc(C(=O)O)cs1)Nc1ccc2cc1CCc1cccc(c1)Nc1ncc(Cl)c(n1)N2 [Example B250, 2-[({[6-Chloro-2,4,8,22-tetraazatetracyclo[14.3.1.1(3,7).1(9,13)]docosa-1(20),3(22),4,6,9(21),10,12,16,18-nonaen-12-yl]amino}carbonyl)amino]-1,3-thiazole-4-carboxylic acid trifluoroacetate]
4.2	37	14	44	53	O=C(Nc1nnn[nH]1)Nc1ccc2cc1CCc1cccc(c1)Nc1ncc(Cl)c(n1)N2 [Example B251, N-[6-Chloro-2,4,8,22-tetraazatetracyclo[14.3.1.1(3,7).1(9,13)]docosa-1(20),3(22),4,6,9(21),10,12,16,18-nonaen-12-yl]-N′-1H-tetrazol-5-ylurea trifluoroacetate]
119	26	62	20	13	O=C(Nc1ncc(Cl)s1)Nc1ccc2cc1CCc1cccc(c1)Nc1ncc(Cl)c(n1)N2 [Example B252, N-[6-Chloro-2,4,8,22-tetraazatetracyclo[14.3.1.1(3,7).1(9,13)]docosa-1(20),3(22),4,6,9(21),10,12,16,18-nonaen-12-yl]-N′-(5-chloro-1,3-thiazol-2-yl)urea trifluoroacetate]
695	72	173	4.9	90	O=C(Nc1ccccn1)Nc1ccc2cc1CCc1cccc(c1)Nc1ncc(Cl)c(n1)N2 [Example B253, N-[6-Chloro-2,4,8,22-tetraazatetracyclo[14.3.1.1(3,7).1(9,13)]docosa-1(20),3(22),4,6,9(21),10,12,16,18-nonaen-12-yl]-N′-pyridin-2-ylurea bis(trifluoroacetate)]
26	2.4	8.2	18	2	O=C(NCCN1CCOCC1)Nc1ccc2cc1CCc1cccc(c1)Nc1ncc(Cl)c(n1)N2 [Example B254, N-[6-Chloro-2,4,8,22-tetraazatetracyclo[14.3.1.1(3,7).1(9,13)]docosa-1(20),3(22),4,6,9(21),10,12,16,18-nonaen-12-yl]-N′-(2-morpholin-4-ylethyl)urea bis(trifluoroacetate)]
53	14	25	32	5.5	O=C(NCCN1CCCC1)Nc1ccc2cc1CCc1cccc(c1)Nc1ncc(Cl)c(n1)N2 [Example B255, N-[6-Chloro-2,4,8,22-tetraazatetracyclo[14.3.1.1(3,7).1(9,13)]docosa-1(20),3(22),4,6,9(21),10,12,16,18-nonaen-12-yl]-N′-(2-pyrrolidin-1-ylethyl)urea bis(trifluoroacetate)]
77	13	21	23	4.2	CN1CCCC1CCNC(=O)Nc1ccc2cc1CCc1cccc(c1)Nc1ncc(Cl)c(n1)N2 (stereo not drawn) [Example B256, N-[6-Chloro-2,4,8,22-tetraazatetracyclo[14.3.1.1(3,7).1(9,13)]docosa-1(20),3(22),4,6,9(21),10,12,16,18-nonaen-12-yl]-N′-[2-(1-methylpyrrolidin-2-yl)ethyl]urea bis(trifluoroacetate)]
64	9.5	18	14	7.3	O=C(NCCN1CCCC1=O)Nc1ccc2cc1CCc1cccc(c1)Nc1ncc(Cl)c(n1)N2 [Example B257, N-[6-Chloro-2,4,8,22-tetraazatetracyclo[14.3.1.1(3,7).1(9,13)]docosa-1(20),3(22),4,6,9(21),10,12,16,18-nonaen-12-yl]-N′-[2-(2-oxopyrrolidin-1-yl)ethyl]urea trifluoroacetate]
83	10	24	29	4.9	O=C(NCCN1CCCCC1)Nc1ccc2cc1CCc1cccc(c1)Nc1ncc(Cl)c(n1)N2 [Example B258, N-[6-Chloro-2,4,8,22-tetraazatetracyclo[14.3.1.1(3,7).1(9,13)]docosa-1(20),3(22),4,6,9(21),10,12,16,18-nonaen-12-yl]-N′-(2-piperidin-1-ylethyl)urea bis(trifluoroacetate)]

Reference: US8871753B2, “Macrocyclic compounds and their use as kinase inhibitors” (Incyte Corporation, priority 2008, dated 2014)
